Data published in patent EP1393728A1, “Inverse agonists acting at virus-encoded G protein-coupled receptors” (priority 2002, dated 2004).

Columns and labels:
[1] = target: E^277Q-US28 (Human cytomegalovirus, UniProt P69332, E277Q); assay type: binding, HCMV; details: E277Q-US28, [125I]-RANTES displacement
From the text: (§1) DNA constructs. The cDNA encoding for US28 (see Casarosa et al. in J, Biol. Chem. 276 (2001) 1133-1137) was inserted into the mammalian vector pcDNAS. Δ(2-22)-US28 and the HA-tagged versions of both WT- and Δ(2-22)-US28 were generated by PCR. Single amino acid mutations, as for E^277A- and E^277Q.US28, were introduced using the Altered Sites® II in vitro Mutagenesis System (Promega, Madison, USA), according to manufacturer's protocol. All constructs were verified by dideoxy sequencing.
(§2) Binding experimants. Labeling of RANTES (Peprotech, Rocky Hill, USA) with [^125I] and binding in COS-7 cells were performed as previously described (Gruijthuijsen et al., J. Virol. 76 (2002) 1328-1338).
(§3) E^277 was therefore mutated into glutamine, to eliminate the charge but retain the hydrogen bonding potential of the side chain, and into alanine, to eliminate both the charge and the hydrogen bonding potential.

[2] = target: E^277A-US28 (Human cytomegalovirus, UniProt P69332, E277A); assay type: binding, HCMV; details: E277A-US28, [125I]-RANTES displacement
From the text: as §1, §2, §3

[3] = target: T1, US28 (Human cytomegalovirus, UniProt P69332); assay: cell-based; set-up: species or system HCMV (strain AD169)
Method: (§4) Cell culture, transfection and infection with HCMV. COS-7 cells were grown as previously described in the cited Casarosa reference. Transfection of the COS-7 cells was performed by DEAE-dextran, using 2 µg of DNA of each US28 construct per million cells. Human foreskin fibroblasts (HFFs) were cultured and infected with […] (strain AD169) or a deletion mutant Δ28-HCMV.
(§5) [^3H]-inositol phosphate production. Experiments in COS-7 cells and HFFs were performed as described in the references mentioned in the previous paragraph.

[4] = tested on: US28; assay: cell-based; set-up: species or system HCMV (strain AD169); details: US28-deletion-mutant-HCMV- or mock-infected HFFs
Method: as §4, §5

[5] = target: T2, KSHV-encoded ORF74 (Human herpesvirus 8 type P, UniProt Q98146); assay: ORF74-mediated InsP accumulation (PLC activation) in COS-7 cells; assay type: cell-based; details: concentration as high as 10 µM
T2 construct: expressed in transfected cells; host or cells: COS-7
Method: as §5
(§6) Moreover, other GPCRs were used as controls to ascertain specificity of action of this compound. As previously reported, expression ofRCMV-encoded R33 (Gruijthuijsen et al. J. Virol. 76 (2002), 1328-1338) or KSHV-encoded ORF74 (Rosenkilde et al. 274 (1999), 956-961) also leads to constitutive activation of phospholipase C.

[6] = target: T3, RCMV-encoded R33 (Rat cytomegalovirus, UniProt O12000); assay: R33-mediated InsP accumulation (PLC activation) in COS-7 cells; assay type: cell-based; details: concentration as high as 10 µM
T3 construct: expressed in transfected cells; host or cells: COS-7
Method: as §5, §6

[7] = tested on: US28-mediated HIV-1 entry; assay: HIV-1 infection assay (luciferase reporter virus) in HEK293-T cells with CD4 and US28; assay type: cell-based; details: Human immunodeficiency virus 1, HEK-293T
Method: HIV-1 infection assay. HEK293-T cells were transiently transfected with pcDNA1-US28 and pcDNA1-CD4 using the calcium phosphate method and cultured overnight in 48 well plates. The following day, cells were incubated with different concentrations of the compound of Formula X (dissolved in DMSO) or medium (containing an equal amount of DMSO) for 2 hours before infection with an R5-tropic HIV- 1 virus containing the luciferase reporter gene under the LTR promoter. After overnight incubation, cells were washed twice and cultivated in fresh medium. 3 days after infection, the luciferase activity was quantitated using the Luciferase Assay System (Promega, Madison, USA).
(§7) In order to test the ability of the compound of Formula X to block viral entry via US28, a reporter gene assay was used. In this assay, HEK-293T cells expressing US28 and CD4 are infected by a luciferase-containing HIV-1 reporter virus. Consequently, the level of cellular luciferase activity is proportional to HIV-1 entry. […] Luciferase activity is increased approximately 20 fold in the presence of US28 when compared to cells expressing CD4 alone (fig. 6A). […] At 10^-6M, the compound of Formula X reduces HIV-1 entry to 41 ± 8 % of control cells. Determination of a complete dose-response curve was not possible due to toxic effects of DM50 and the compound at higher concentrations, as determined by MTT test.

[8] = target: T1, US28; assay: cell-based; set-up: species or system HCMV; details: for % 10^-5 remaining activity on US28 in inositol phosphate assay: at 10^-5; for inverse agonistic effect at US28 relative to the compound of Formula X (statement in words): structure-activity discussion of Table 1; for loss in inverse agonistic potency: relative to the compound of Formula X
Method: as §4, §5
Data analysis. Curve fitting of data was carried out using the program Prism and IC50 values obtained by nonlinear regression analysis (GraphPad Software, Inc., San Diego, USA). Data are expressed as mean ± S.E.
In order to find inverse agonists for US28, a variety of compounds were screened for modulation of US28-mediated constitutive inositol phosphate (InsP) production. This approach led to identify the compound of Formula X as inverse agonist for US28.

[9] = target: T4, human histamine H1 receptor (hH1) (Homo sapiens, UniProt P35367); assay: InsP production in COS-7 cells expressing the histamine H1 receptor; assay type: cell-based; details: 10 µM, COS-7 cells expressing the H1 receptor
T4 construct: expressed in transfected cells; host or cells: COS-7
Method: as §5
Furthermore, the compound of Formula X was tested on COS-7 cells expressing the human histamine H1 receptor (hH1). Like US28, this GPCR constitutively activates PLC enzymes via Gαq/11 proteins.

[10] = tested on: HEK-293T cells; assay: MTT test; assay type: cell-based; details: higher concentrations (above 10^-6M), together with the solvent
From the text: as §7

[11] = tested on: transfected cells; assay: AlamarBlue toxicity test; assay type: cell-based; details: AlamarBlue assay, 2 hours incubation, data not shown
Method: Toxicity test. The AlamarBlue^TM assay (Serotec, Oxford, UK) was performed following the manufacturer's protocol. Briefly, transfected cells were incubated with the compound of Formula X for 2 hours, followed by the addiction of the AlamarBlue dye.
After 1 hour, the fluorescence was monitored at 560 nm excitation wavelength and 590 nm emission wavelenght in a Victor^2 (PerkinElmer, Boston, USA).

[12] = target: T1, US28; assay: biochemical; assay type: binding, HCMV (strain AD169); details: AD169-infected HFFs
Method: as §4, §2

[13] = target: T1, US28; assay: biochemical; assay type: binding, HCMV
[14] = target: Δ(2-22)-US28 (Human cytomegalovirus, UniProt P69332); assay: cell-based; set-up: species or system HCMV
From the text: as §1, §5

[15] = target: T1, US28; assay type: binding, HCMV; details: in the presence of 10 µM compound of Formula X (725 ± 69 in its absence)
Method: as §2
Moreover, the present inventors investigated the effect of the compound of Formula X in a saturation binding assay of [^125I]-RANTES.

[16] = IC50 InsP, inhibition of US28-mediated InsP production, COS-7 cells, N.A. = non active

T1 sequence (P69332 whole entry): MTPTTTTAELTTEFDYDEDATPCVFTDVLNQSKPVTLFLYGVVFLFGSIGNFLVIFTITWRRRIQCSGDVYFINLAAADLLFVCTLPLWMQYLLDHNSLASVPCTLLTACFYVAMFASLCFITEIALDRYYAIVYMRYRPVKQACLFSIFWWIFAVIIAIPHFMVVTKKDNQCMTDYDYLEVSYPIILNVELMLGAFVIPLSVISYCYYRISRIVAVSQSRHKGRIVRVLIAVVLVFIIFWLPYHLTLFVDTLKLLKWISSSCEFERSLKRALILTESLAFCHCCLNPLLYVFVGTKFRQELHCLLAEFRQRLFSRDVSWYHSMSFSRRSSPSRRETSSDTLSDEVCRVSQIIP
Chain of Δ(2-22)-US28 (P69332 22-354, looked up, stated change not applied): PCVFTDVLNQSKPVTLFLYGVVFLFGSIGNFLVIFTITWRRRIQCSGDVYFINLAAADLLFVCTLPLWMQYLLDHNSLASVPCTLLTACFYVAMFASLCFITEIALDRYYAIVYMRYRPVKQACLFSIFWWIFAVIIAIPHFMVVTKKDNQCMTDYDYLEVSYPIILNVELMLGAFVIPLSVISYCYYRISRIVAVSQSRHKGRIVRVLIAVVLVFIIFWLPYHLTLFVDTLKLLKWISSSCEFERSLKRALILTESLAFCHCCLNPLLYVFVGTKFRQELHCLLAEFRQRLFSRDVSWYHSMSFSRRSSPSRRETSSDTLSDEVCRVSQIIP
Chain of E^277A-US28 (P69332 whole entry E277A): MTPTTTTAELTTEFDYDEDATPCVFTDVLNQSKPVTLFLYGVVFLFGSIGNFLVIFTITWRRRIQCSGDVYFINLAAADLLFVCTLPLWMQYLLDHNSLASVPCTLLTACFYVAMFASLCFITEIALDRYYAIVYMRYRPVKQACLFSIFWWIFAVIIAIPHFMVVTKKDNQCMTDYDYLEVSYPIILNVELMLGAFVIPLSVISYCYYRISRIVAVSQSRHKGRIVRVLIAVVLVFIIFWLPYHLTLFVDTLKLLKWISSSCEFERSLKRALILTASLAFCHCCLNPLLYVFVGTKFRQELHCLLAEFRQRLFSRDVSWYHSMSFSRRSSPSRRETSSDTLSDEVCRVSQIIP
T3 sequence (O12000 whole entry): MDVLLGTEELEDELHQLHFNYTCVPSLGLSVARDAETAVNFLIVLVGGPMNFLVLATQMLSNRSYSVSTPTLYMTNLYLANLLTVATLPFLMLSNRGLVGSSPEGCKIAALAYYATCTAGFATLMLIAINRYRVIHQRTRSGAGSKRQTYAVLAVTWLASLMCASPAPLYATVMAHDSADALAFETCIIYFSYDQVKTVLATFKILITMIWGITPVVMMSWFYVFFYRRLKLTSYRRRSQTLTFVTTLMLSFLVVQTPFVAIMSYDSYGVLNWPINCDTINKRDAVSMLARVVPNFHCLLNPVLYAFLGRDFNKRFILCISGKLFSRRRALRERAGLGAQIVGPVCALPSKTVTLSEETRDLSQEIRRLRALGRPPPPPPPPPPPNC
T4 sequence (P35367 whole entry): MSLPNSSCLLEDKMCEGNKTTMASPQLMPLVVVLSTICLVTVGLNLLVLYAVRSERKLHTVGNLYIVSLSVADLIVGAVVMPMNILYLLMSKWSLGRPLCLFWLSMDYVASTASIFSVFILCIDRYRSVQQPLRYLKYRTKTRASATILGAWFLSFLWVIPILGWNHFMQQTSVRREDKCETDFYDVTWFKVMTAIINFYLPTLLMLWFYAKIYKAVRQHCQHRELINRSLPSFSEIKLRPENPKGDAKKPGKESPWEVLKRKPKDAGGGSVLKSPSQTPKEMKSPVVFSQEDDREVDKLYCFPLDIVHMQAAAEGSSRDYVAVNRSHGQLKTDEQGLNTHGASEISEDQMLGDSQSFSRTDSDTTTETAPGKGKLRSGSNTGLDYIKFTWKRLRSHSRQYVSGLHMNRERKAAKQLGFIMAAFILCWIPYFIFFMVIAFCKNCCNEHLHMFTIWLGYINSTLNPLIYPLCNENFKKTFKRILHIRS
T2 sequence (Q98146 whole entry): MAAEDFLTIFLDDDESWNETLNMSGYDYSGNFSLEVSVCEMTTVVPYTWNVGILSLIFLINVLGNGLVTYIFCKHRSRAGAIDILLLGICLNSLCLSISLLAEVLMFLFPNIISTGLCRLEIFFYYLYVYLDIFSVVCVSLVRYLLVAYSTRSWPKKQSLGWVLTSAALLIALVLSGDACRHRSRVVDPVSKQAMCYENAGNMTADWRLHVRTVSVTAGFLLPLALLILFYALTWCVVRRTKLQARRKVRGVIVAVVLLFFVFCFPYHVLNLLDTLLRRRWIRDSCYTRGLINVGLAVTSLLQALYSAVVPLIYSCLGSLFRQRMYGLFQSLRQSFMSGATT
Chain of E^277Q-US28 (P69332 whole entry E277Q): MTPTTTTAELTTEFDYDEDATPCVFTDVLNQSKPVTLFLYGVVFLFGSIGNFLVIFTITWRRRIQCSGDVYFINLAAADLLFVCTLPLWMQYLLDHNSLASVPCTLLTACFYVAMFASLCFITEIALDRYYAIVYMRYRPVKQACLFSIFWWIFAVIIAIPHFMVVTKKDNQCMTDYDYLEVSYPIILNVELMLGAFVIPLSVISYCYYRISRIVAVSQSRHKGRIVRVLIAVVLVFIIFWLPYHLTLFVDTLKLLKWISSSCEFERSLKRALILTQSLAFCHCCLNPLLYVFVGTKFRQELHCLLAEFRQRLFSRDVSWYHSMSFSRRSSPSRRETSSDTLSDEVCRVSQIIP

SMILES: N#CC(CCCN1CCC(O)(c2ccc(Cl)cc2)CC1)(c1ccccc1)c1ccccc1 [Formula X]
- affinity compared to WT-US28 [1]: markedly reduced
- affinity compared to WT-US28 [2]: markedly reduced
- IC50 [3]: 0.776 µM
- effect on InsP signaling [4]: does not affect
- modulation of ORF74-mediated PLC activation [5]: does not modulate
- modulation of R33-mediated PLC activation [6]: does not modulate
- activity at 1 µM ([7]; read-out: HIV-1 entry, % of control cells): 41 ± 8%
- inhibition at 1 µM ([7]; read-out: inhibition of viral entry): 60%
- kind of inverse agonism at US28 (inhibition of signaling complete) ([8]; COS-7 cells): full inverse agonist
- IC50 [8, 16]: 3.5 µM
- % 10^-5 remaining activity on US28 in inositol phosphate assay [8]: 10%
- IC50 ([8]; pIC50 of US28 mediated InsP production, COS-7 cells, WT-US28): 3.47 µM
- basal or histamine-induced production of InsP [9]: does not alter
- toxicity by MTT test [10]: toxic effects
- cellular toxicity [11]: did not show cellular toxicity
- IC50 ([12]; IC50 of [125I]-RANTES displacement): 0.708 µM
- IC50 ([12]; pIC50 of [125I]-RANTES displacement): 0.708 µM
- IC50 [13]: 8.4 µM
- IC50 [14]: 4.47 µM
- inhibition of constitutive signaling ([14]; Δ(2-22)-US28, COS-7 cells): totally inhibits
- Bmax value of [125I]-RANTES [15]: 380 ± 36 fmol/mg protein

SMILES: CC(C)(C)c1ccc(C(O)CCCN2CCC(C(O)(c3ccccc3)c3ccccc3)CC2)cc1 (stereo not drawn) [Terfenadine, α-[4-(1,1-dimethylethyl)phenyl]-4-(hydroxydiphenylmethyl)-1-piperidinebutanol, reference compound]
- % 10^-5 remaining activity on US28 in inositol phosphate assay [8]: 15%

SMILES: N#CC(CCCN1CCN(c2ccc(Cl)cc2)CC1)(c1ccccc1)c1ccccc1 [VUF5658]
- % 10^-5 remaining activity on US28 in inositol phosphate assay [8]: 88%
- inverse agonistic effect at US28 relative to the compound of Formula X (statement in words) [8]: inactive

SMILES: N#CC(CCCN1CCC(O)(c2ccccc2)CC1)(c1ccccc1)c1ccccc1 [VUF5660]
- IC50 [8, 16]: 29 µM
- % 10^-5 remaining activity on US28 in inositol phosphate assay [8]: 60%
- loss in inverse agonistic potency [8]: five- to ten-fold
- IC50 [13]: 35 µM

SMILES: N#CC(CCCN1CCC(c2ccc(Cl)cc2)CC1)(c1ccccc1)c1ccccc1 [VUF5662]
- IC50 [8, 16]: 14 µM
- % 10^-5 remaining activity on US28 in inositol phosphate assay [8]: 60%
- loss in inverse agonistic potency [8]: five- to ten-fold
- IC50 ([13]; [125I]-RANTES binding at US28, COS-7 cells, N.A. = non active, read-out: IC50 binding): 10.5 µM

SMILES: N#CC(CCCN1CC=C(c2ccc(Cl)cc2)CC1)(c1ccccc1)c1ccccc1 [VUF5664]
- % 10^-5 remaining activity on US28 in inositol phosphate assay [8]: 83%

SMILES: O=C(CCCN1CCC(O)(c2ccc(Cl)cc2)CC1)c1ccccc1 [VUF5666]
- % 10^-5 remaining activity on US28 in inositol phosphate assay [8]: 70%

SMILES: OC1(c2ccc(Cl)cc2)CCN(CCCC(c2ccccc2)c2ccccc2)CC1 [VUF5667]
- IC50 [8, 16]: 4.2 µM
- % 10^-5 remaining activity on US28 in inositol phosphate assay [8]: 23%
- inverse agonistic effect at US28 relative to the compound of Formula X (statement in words) [8]: does not affect the activity
- IC50 [13]: 5.9 µM

SMILES: N#CC1(CCCN2CCC(O)(c3ccc(Cl)cc3)CC2)c2ccccc2CCc2ccccc21 [VUF5713]
- IC50 [8, 16]: 5.3 µM
- % 10^-5 remaining activity on US28 in inositol phosphate assay [8]: -5%
- inverse agonistic effect at US28 relative to the compound of Formula X (statement in words) [8]: comparable potencies
- IC50 [13]: 9.6 µM

SMILES: OC1(c2ccc(Cl)cc2)CCN(CCCOc2ccccc2)CC1 [VUF5714]
- % 10^-5 remaining activity on US28 in inositol phosphate assay [8]: 77%

SMILES: N#CC(O)(CCCN1CCC(O)(c2ccc(Cl)cc2)CC1)c1ccccc1 (stereo not shown) [VUF5715]
- inverse agonistic effect at US28 relative to the compound of Formula X (statement in words) [8]: loss of effect

SMILES: O=C(NCC(CCCN1CCC(O)(c2ccc(Cl)cc2)CC1)(c1ccccc1)c1ccccc1)NC1CCNCC1 [VUF5717]
- % 10^-5 remaining activity on US28 in inositol phosphate assay [8]: 100%

SMILES: N#CC(CCCN1CCC(C(=O)O)CC1)(c1ccccc1)c1ccccc1 [VUF5718]
- % 10^-5 remaining activity on US28 in inositol phosphate assay [8]: 85%

SMILES: N#CC(CCCN1CCC(C(N)=O)CC1)(c1ccccc1)c1ccccc1 [VUF5720]
- % 10^-5 remaining activity on US28 in inositol phosphate assay [8]: 87%

SMILES: N#CC1(CCCN2CCC(O)(c3ccc(Cl)cc3)CC2)c2ccccc2CSc2ccccc21 (stereo not shown) [VUF5727]
- % 10^-5 remaining activity on US28 in inositol phosphate assay [8]: 14%

SMILES: NCC(CCCN1CCC(O)(c2ccc(Cl)cc2)CC1)(c1ccccc1)c1ccccc1 [VUF5728]
- % 10^-5 remaining activity on US28 in inositol phosphate assay [8]: 10%
